Data: the supplement of paper PMC10307832

How the values were obtained:
Experiment in all cases: relative viability (nuclei count vs DMSO), 5 days (fraction); higher = more cells survive
AZ3146 + Bortezomib = compound: CN1CCC(CC1)OC2=CC(=C(C=C2)NC3=NC=C4C(=N3)N(C(=O)N4C)C5CCCC5)OC [AZ3146] + CC(C)C[C@H](NC(=O)[C@H](Cc1ccccc1)NC(=O)c1cnccn1)B(O)O [Bortezomib] (partner 0.002 µM)
Method in brief: (§1)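 Relative viability was taken as the ratio of nuclei in treated wells to nuclei in vehicle wells. Lung cancer cell lines in 1536-well plates received compounds by pin tool one day after seeding, either one drug alone or a fixed anchor-drug dose plus five library-drug doses (not always all listed) in √10 steps. Nuclei were counted on 4× images after 5 days of treatment, and values are medians of duplicate plates.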

GSK-J4 + Dasatinib = compound: CCOC(=O)CCNc1cc(N2CCc3ccccc3CC2)nc(-c2ccccn2)n1 [GSK-J4] + Cc1nc(Nc2ncc(C(=O)Nc3c(C)cccc3Cl)s2)cc(N2CCN(CCO)CC2)n1 [Dasatinib] (partner 0.075 µM)
Method in brief: as §1

AZ3146 + Tozasertib = compound: CN1CCC(CC1)OC2=CC(=C(C=C2)NC3=NC=C4C(=N3)N(C(=O)N4C)C5CCCC5)OC [AZ3146] + Cc1cc(Nc2cc(N3CCN(C)CC3)nc(Sc3ccc(NC(=O)C4CC4)cc3)n2)n[nH]1 [Tozasertib] (partner 0.1 µM)
Method in brief: as §1

AZ3146 + Pemetrexed = compound: CN1CCC(CC1)OC2=CC(=C(C=C2)NC3=NC=C4C(=N3)N(C(=O)N4C)C5CCCC5)OC [AZ3146] + Nc1nc2[nH]cc(CCc3ccc(C(=O)N[C@@H](CCC(=O)O)C(=O)O)cc3)c2c(=O)[nH]1 [Pemetrexed] (partner 0.2 µM)
Method in brief: as §1

| Cell Line | relative viability (AZ3146 + Bortezomib; first compound 0.08 µM) | relative viability (AZ3146 + Bortezomib; first compound 0.253 µM) | relative viability (AZ3146 + Bortezomib; first compound 0.8 µM) | relative viability (AZ3146 + Bortezomib; first compound 2.53 µM) | relative viability (AZ3146 + Bortezomib; first compound 8 µM) | relative viability (GSK-J4 + Dasatinib; first compound 0.5 µM) | relative viability (GSK-J4 + Dasatinib; first compound 1.581 µM) | relative viability (GSK-J4 + Dasatinib; first compound 5 µM) | relative viability (GSK-J4 + Dasatinib; first compound 15.81 µM) | relative viability (GSK-J4 + Dasatinib; first compound 50 µM) | relative viability (AZ3146 + Tozasertib; first compound 0.08 µM) | relative viability (AZ3146 + Tozasertib; first compound 0.253 µM) | relative viability (AZ3146 + Tozasertib; first compound 0.8 µM) | relative viability (AZ3146 + Tozasertib; first compound 2.53 µM) | relative viability (AZ3146 + Tozasertib; first compound 8 µM) | relative viability (AZ3146 + Pemetrexed; first compound 0.08 µM) | relative viability (AZ3146 + Pemetrexed; first compound 0.253 µM) | relative viability (AZ3146 + Pemetrexed; first compound 2.53 µM) | relative viability (AZ3146 + Pemetrexed; first compound 8 µM) | relative viability (AZ3146 + Pemetrexed; first compound 0.8 µM) |
| --- | --- | --- | --- | --- | --- | --- | --- | --- | --- | --- | --- | --- | --- | --- | --- | --- | --- | --- | --- | --- |
| NCI-H1299 | 0.965 | 0.965 | 1.05 | 1.01 | 1.01 |  |  |  |  |  |  |  |  |  |  |  |  |  |  |  |
| NCI-H1395 |  |  |  |  |  | 0.402 | 0.428 | 0.382 | 0.355 | 0.375 | 0.647 | 0.832 | 0.888 | 0.791 | 0.522 | 0.783 | 0.746 | 0.91 | 0.661 |  |
| NCI-H1563 | 0.703 | 0.82 | 0.826 | 1.01 | 0.77 | 0.51 | 0.695 | 0.461 | 0.42 | 0.417 |  |  |  |  |  | 0.673 | 0.645 | 0.797 | 0.825 | 0.717 |
| NCI-H1623 |  |  |  |  |  | 0.562 | 0.576 | 0.629 | 0.38 | 0.51 | 0.46 | 0.404 | 0.461 | 0.481 | 0.4 |  |  |  |  |  |
| NCI-H1648 |  |  |  |  |  |  |  |  |  |  |  | 0.303 | 0.54 | 0.58 | 0.406 |  |  | 0.801 | 0.62 | 1.02 |
| NCI-H1703 | 0.213 | 0.485 | 0.292 | 0.275 | 0.275 |  |  |  |  |  |  |  |  |  |  |  |  |  |  |  |
| NCI-H1792 | 0.784 | 1.04 | 1.05 | 0.976 | 1 | 0.805 |  | 0.817 | 0.529 | 0.809 |  |  |  |  |  | 0.606 | 0.871 | 1.04 | 0.701 | 0.68 |
| NCI-H1793 |  |  |  |  |  | 0.433 | 0.365 | 0.239 | 0.358 | 0.414 | 0.315 | 0.34 | 0.296 | 0.192 | 0.254 | 1.02 | 0.792 | 1.16 | 0.51 | 0.565 |
| NCI-H1944 |  |  |  |  |  | 0.225 | 0.223 | 0.179 | 0.196 | 0.184 | 0.219 | 0.241 | 0.246 | 0.235 | 0.224 | 0.484 | 0.616 | 0.646 | 0.705 | 0.636 |
| NCI-H2170 |  |  |  |  |  | 0.542 | 0.744 | 0.643 | 0.475 | 0.536 | 0.593 | 0.838 | 0.644 | 0.561 | 0.266 | 0.269 | 0.248 | 0.268 | 0.281 | 0.26 |
| NCI-H2342 |  |  |  |  |  | 0.314 | 0.299 | 0.33 | 0.365 | 0.313 | 0.329 | 0.654 | 0.518 | 0.505 | 0.353 | 0.69 | 0.821 | 0.756 | 0.752 | 0.807 |
| SK-MES-1 |  |  |  |  |  | 0.392 | 0.348 | 0.334 | 0.24 | 0.358 | 0.891 | 0.97 | 0.77 | 0.276 | 0.211 | 1.02 | 0.976 | 0.997 | 0.792 | 0.965 |
| SW 900 |  |  |  |  |  | 0.603 | 0.496 | 0.426 | 0.568 | 0.327 | 0.466 | 0.625 | 0.399 | 0.326 | 0.333 | 0.459 |  | 0.492 | 0.429 | 0.445 |
